{"source": "patent US20180045715A1", "about": "“STRUCTURE AND FUNCTION OF THE SALICYCLIC ACID BINDING SITES ON HUMAN HMGB1 AND METHODS OF USE THEREOF FOR THE RATIONAL DESIGN OF BOTH SALICYCLIC ACID DERIVATIVES AND OTHER AGENTS THAT ALTER ANIMAL AND PLANT HMGBS ACTIVITIES” (Boyce Thompson Institute for Plant Research, Inc., priority 2015, published 2018)", "key": {"[1]": {"target": "T1, HMGB1-CXCL12 Complex (Homo sapiens, UniProt P09429, DEL90-93)", "T1 construct": "(i) full length: residues 2-215; full-length disulfide-intact CXCL12; hexaHis (TEV-cleavable) (N, cleaved yes)", "T1 sequence (P09429 2-215 limits assumed)": "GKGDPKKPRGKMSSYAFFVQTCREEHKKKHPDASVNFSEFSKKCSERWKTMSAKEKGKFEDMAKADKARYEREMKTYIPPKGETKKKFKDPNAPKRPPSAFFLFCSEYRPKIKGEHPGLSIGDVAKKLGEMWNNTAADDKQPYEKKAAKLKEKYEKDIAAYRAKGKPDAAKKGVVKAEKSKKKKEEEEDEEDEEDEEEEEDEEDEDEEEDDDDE", "assay": "WaterLOGSY NMR with HMGB1/CXCL12 complex", "assay_type": "binding", "settings": "6 mM SA or 5 mM ac3AESA, 20 μM complex", "description": "(§1) NMR can be used to detect protein ligand interactions either by protein-detected experiments (Lepre, Moore et al. 2004), detecting changes in the frequencies of resonances of the protein sample due to ligand binding (protein-detected chemical shift perturbation (CSP) experiments), or by ligand-detected experiments (Lepre, Moore et al. 2004), in which NMR properties of the ligands due to ligand-protein interactions are detected. Protein-detected ligand binding experiments are usually done using isotope-enriched protein samples which can be studied by isotope-filtered NMR experiments, including for example ^15N-^1H-HSQC (Kay, Keifer et al. 1992). Ligand-detected experiments include the Waterlogsy experiment (Meyer and Peters 2003, Lepre, Moore et al. 2004, Furihata, Shimotakahara et al. 2008), which detects interactions in the ternary complex formed by the protein, the ligand, and one or more water molecules, and the Saturation Transfer Difference (STD) NMR experiments (Mayer and Meyer 2001, Lepre, Moore et al. 2004, Wang, Liu et al. 2004), which detects magnetization transfer from the protein to the ligand in the protein-ligand complex. The Waterlogsy experiment is a more sensitive experiment, typically employed to detect qualitatively if there is an interaction between protein and ligand. […]"}, "[2]": {"target": "T2, CXCL12 (Homo sapiens, UniProt P48061)", "T2 construct": "full-length disulfide-intact CXCL12", "T2 sequence (P48061 22-89 limits assumed, species assumed)": "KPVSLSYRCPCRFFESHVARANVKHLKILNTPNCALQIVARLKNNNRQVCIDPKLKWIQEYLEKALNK", "assay": "WaterLOGSY NMR with CXCL12", "assay_type": "binding", "settings": "6 mM SA or 5 mM ac3AESA, 20 μM protein", "description": "as §1"}, "[3]": {"target": "T3, K12A/K68A HMGB1^RE (Homo sapiens, UniProt P09429, K12A/K68A)", "T3 construct": "(i) full length: residues 2-215; made in house", "T3 sequence (P09429 2-215 K12A/K68A)": "T1 sequence (P09429 2-215 limits assumed) with K11A, K67A", "assay": "Chemotaxis assay with mutant K12A/K68A HMGB1^RE", "assay_type": "cell-based", "settings": "1 nM mutant HMGB1^RE, 30 μM SA", "protocol": "Cell migration was assayed using Boyden chambers (Venereau et al., 2012). The downside of PVP-free polycarbonate filters (8 μm pores; Millipore) was coated with 50 μg/ml fibronectin (Sigma). Serum-free DMEM (negative control), DMEM containing 0.1 nM fMLP (positive control; Sigma), or DMEM containing 1 nM HMGB1^RE or HMGB1^SS were placed in the lower chamber, together with different concentrations of SA (Sigma). The mouse 3T3 fibroblast cells were cultured in DMEM media supplemented with 10% CS until 90% confluence, washed twice with PBS to eliminate any floating cells, and harvested with trypsin. 50,000 cells in 200 μL were added to the upper chamber, and cells were left to migrate for 3 h at 37° C. Non-migrating cells were removed with a cotton swab, and migrated cells were fixed with ethanol and stained with Giemsa.\nTwo additional double mutants in Box A were constructed—H27A/R48A and K12A/K68A. […] Since mutant H27A/R48A no longer had chemo-attractant activity, the effect of SA on this activity could not be assessed (FIG. 12)."}, "[4]": {"target": "T4, HMGB1 Box A domain (Homo sapiens, UniProt P09429)", "T4 construct": "(iii) Box A: residues 10-80; hexaHis (TEV-cleavable) (N, cleaved yes); made in house", "T4 sequence (P09429 10-80)": "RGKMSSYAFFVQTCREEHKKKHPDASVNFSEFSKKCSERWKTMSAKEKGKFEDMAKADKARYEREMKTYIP", "assay": "15N-1H HSQC titration for Kd measurement", "assay_type": "binding", "protocol": "[…] Samples were analyzed with and without SA or other candidate inhibitors at 25° C. Chemical shift perturbation studies were carried out using either a Bruker Avance 800 MHz Avance NMR system with 4-mm NMR tubes, or using a Bruker Avance 600 MHz NMR spectrometer equipped with a 1.7 mm micro cryoprobe. 1024 or 2048 complex points were acquired for each of 80 to 200 increments in the ^15N dimension with a recycle delay of 1 s. Each spectrum was typically acquired for 2-8 hrs. Chemical shift assignments were determined using a uniformly ^13C,^15N-enriched HMGB1-ΔC construct at 25° C. via traditional triple-resonance NMR experiments (Biamonti et al., 1994; Moseley et al., 2001) recorded on a Bruker 800 MHz NMR spectrometer equipped with a 5 mm cryoprobe. Disulfide oxidation studies were carried out using the ^15N-^1H SOFAST-HMQC NMR experiment (Schanda & Brutscher, 2005; Schanda et al., 2005; Zandarashvili et al., 2013).\nNMR experiments were used to discover that ac3AESA binds to HMGB1 Box A domain of HMGB1 more tightly than SA itself. […] Chemical shift perturbations (CSPs) are defined as Δδppm=[(δHN*6.5)^2+δN^2]^1/2."}}, "note": "Substitutions are numbered along the chain they refer to. Values joined by “and” are separate entries in the source; they are usually repeats but may differ in a detail not shown here. Equal values may be shown once. Read-outs that look alike come from different tables or passages of the source.", "data": [{"smiles": "O=C(O)c1ccccc1O", "note": "[SA, salicylic acid]", "values": [{"measurement": "WaterLOGSY binding to complex formed between CXCL12 and HMGB1", "setting": "[1]", "value": "binds"}, {"measurement": "WaterLOGSY binding to CXCL12", "setting": "[2]", "value": "binds"}, {"measurement": "inhibition by SA of K12A/K68A HMGB1^RE chemo-attractant activity", "setting": "[3]", "value": "retained"}, {"measurement": "Kd", "setting": "[4]; 0.2 mM Box A, pH 7.5, read-out: Kd of binding to HMGB1 Box A (HSQC titration, 1:1 fit)", "value": "~90 mM and 90 mM"}, {"measurement": "Kd", "setting": "[4]; Box A or full-length HMGB1, read-out: Kd from titrating SA with either Box A or full-length HMGB1", "value": "~10", "unit": "mM"}, {"measurement": "Kd", "setting": "[4]; read-out: affinity (Kd) for Box A of HMGB1 as stated in definitions", "value": "~10", "unit": "mM"}]}]}
